{"source": "paper PMC3928398", "about": "“RPEL Proteins Are the Molecular Targets for CCG-1423, an Inhibitor of Rho Signaling” (PLoS ONE, 2014)", "assay_in_all_cases": "pull-down with CCG-1423 Sepharose, immunoblot", "type_in_all_cases": "binding", "key": {"[1]": {"target": "T1, Phactr1, Flag-Phactr1 (Rattus norvegicus, UniProt P62024)", "T1 construct": "N-terminal Flag tag, pCS2+; in vitro translated in wheat germ extract, anti-Flag purified", "T1 sequence (P62024 1-580)": "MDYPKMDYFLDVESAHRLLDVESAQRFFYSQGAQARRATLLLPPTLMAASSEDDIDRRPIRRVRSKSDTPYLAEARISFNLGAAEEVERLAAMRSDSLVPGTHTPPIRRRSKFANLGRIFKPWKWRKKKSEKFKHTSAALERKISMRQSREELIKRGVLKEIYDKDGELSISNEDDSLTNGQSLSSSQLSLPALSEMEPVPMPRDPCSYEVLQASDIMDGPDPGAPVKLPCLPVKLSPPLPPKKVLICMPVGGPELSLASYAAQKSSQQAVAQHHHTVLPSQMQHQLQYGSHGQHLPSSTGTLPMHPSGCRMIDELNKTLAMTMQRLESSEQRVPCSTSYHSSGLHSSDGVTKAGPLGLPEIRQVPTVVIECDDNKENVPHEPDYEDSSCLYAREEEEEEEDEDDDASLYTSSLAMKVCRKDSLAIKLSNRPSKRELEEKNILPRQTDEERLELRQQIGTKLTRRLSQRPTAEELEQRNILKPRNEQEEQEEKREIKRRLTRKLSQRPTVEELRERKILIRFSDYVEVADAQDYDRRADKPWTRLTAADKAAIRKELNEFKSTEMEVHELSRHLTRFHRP", "details": "immobilised CCG-1423 (photo-crosslinked to Sepharose); pH 7.5, 4°C, 2 h"}, "[2]": {"target": "T2, MRTF-A (MAL/MKL1), Flag-MRTF-A (Mus musculus, UniProt Q8K4J6)", "T2 construct": "gene Mrtfa; N-terminal Flag tag, pCS2+; in vitro translated in wheat germ extract, anti-Flag purified", "T2 sequence (Q8K4J6 1-964)": "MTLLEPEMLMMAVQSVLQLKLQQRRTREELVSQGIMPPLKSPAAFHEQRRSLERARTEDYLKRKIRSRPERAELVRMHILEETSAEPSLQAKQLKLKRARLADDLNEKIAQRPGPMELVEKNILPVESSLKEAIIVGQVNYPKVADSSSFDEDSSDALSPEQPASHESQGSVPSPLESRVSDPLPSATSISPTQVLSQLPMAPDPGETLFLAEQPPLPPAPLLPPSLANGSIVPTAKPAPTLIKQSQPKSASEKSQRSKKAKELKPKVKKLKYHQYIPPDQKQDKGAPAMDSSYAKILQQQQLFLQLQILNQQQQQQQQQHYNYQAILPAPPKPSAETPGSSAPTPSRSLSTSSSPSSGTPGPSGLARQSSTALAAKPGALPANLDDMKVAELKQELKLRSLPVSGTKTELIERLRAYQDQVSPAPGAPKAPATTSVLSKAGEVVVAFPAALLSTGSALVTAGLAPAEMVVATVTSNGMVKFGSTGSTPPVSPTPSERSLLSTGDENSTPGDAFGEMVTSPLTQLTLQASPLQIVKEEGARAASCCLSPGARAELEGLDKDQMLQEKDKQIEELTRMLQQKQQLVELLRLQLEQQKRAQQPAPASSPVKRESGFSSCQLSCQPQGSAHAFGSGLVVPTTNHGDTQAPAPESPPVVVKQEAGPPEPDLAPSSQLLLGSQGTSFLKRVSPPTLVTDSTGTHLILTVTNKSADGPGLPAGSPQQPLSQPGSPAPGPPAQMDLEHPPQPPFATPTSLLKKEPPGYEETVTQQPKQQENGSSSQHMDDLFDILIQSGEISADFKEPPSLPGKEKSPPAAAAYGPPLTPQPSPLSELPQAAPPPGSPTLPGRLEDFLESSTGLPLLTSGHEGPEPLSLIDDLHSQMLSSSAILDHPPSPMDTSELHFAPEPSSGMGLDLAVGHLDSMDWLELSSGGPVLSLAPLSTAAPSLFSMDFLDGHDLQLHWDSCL", "details": "immobilised CCG-1423 (photo-crosslinked to Sepharose); pH 7.5, 4°C, 2 h"}, "[3]": {"target": "T3, MRTF-B (MAL16/MKL2), Flag-MRTF-B (Mus musculus, UniProt P59759)", "T3 construct": "gene Mrtfb; N-terminal Flag tag, pCS2+; in vitro translated in wheat germ extract, anti-Flag purified", "T3 sequence (P59759 1-1080)": "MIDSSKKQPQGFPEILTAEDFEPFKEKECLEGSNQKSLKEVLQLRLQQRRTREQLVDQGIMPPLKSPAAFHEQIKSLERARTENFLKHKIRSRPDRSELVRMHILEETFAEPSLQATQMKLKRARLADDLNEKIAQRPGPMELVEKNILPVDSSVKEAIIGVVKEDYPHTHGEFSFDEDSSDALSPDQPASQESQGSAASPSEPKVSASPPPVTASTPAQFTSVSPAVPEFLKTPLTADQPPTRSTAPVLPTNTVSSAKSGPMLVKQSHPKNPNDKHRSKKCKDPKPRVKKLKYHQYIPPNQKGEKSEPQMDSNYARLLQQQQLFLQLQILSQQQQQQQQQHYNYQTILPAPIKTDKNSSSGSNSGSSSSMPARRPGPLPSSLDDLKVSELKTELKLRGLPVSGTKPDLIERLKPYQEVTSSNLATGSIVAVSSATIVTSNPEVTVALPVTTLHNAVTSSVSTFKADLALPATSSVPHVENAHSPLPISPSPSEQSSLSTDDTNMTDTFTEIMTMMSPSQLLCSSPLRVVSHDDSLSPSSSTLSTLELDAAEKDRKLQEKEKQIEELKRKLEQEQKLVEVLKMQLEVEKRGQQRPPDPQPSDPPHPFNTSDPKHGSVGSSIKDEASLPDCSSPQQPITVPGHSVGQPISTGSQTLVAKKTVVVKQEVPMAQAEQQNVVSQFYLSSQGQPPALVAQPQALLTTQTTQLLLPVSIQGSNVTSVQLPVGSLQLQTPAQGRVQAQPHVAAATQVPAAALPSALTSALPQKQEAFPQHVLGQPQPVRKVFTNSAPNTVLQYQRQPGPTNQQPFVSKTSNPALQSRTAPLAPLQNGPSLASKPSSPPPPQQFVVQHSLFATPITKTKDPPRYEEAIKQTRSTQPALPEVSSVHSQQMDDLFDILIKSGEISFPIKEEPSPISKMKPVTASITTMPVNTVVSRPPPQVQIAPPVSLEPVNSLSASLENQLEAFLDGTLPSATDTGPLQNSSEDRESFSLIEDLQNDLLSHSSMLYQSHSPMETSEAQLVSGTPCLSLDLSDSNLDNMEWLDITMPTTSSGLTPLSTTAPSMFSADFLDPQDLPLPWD", "details": "immobilised CCG-1423 (photo-crosslinked to Sepharose); pH 7.5, 4°C, 2 h"}, "[4]": {"target": "T3, MRTF-B (MAL16/MKL2), Flag-MRTF-B", "details": "immobilised CCG-1423 (photo-crosslinked to Sepharose); pH 7.5, 4°C, 2 h", "remark": "listed apart in the source"}, "[5]": {"target": "T2, MRTF-A (MAL/MKL1), Flag-MRTF-A", "details": "immobilised CCG-1423 (photo-crosslinked to Sepharose) competed by 10 µM free CCG-1423; no G-actin; pH 7.5, 4°C, 2 h; site: N-terminal basic domain (NB)"}, "[6]": {"target": "T4, Mycd (myocardin), Flag-Mycd (Mus musculus, UniProt Q8VIM5)", "T4 construct": "gene Myocd; N-terminal Flag tag, pCS2+; in vitro translated in wheat germ extract, anti-Flag purified", "T4 sequence (Q8VIM5 1-935)": "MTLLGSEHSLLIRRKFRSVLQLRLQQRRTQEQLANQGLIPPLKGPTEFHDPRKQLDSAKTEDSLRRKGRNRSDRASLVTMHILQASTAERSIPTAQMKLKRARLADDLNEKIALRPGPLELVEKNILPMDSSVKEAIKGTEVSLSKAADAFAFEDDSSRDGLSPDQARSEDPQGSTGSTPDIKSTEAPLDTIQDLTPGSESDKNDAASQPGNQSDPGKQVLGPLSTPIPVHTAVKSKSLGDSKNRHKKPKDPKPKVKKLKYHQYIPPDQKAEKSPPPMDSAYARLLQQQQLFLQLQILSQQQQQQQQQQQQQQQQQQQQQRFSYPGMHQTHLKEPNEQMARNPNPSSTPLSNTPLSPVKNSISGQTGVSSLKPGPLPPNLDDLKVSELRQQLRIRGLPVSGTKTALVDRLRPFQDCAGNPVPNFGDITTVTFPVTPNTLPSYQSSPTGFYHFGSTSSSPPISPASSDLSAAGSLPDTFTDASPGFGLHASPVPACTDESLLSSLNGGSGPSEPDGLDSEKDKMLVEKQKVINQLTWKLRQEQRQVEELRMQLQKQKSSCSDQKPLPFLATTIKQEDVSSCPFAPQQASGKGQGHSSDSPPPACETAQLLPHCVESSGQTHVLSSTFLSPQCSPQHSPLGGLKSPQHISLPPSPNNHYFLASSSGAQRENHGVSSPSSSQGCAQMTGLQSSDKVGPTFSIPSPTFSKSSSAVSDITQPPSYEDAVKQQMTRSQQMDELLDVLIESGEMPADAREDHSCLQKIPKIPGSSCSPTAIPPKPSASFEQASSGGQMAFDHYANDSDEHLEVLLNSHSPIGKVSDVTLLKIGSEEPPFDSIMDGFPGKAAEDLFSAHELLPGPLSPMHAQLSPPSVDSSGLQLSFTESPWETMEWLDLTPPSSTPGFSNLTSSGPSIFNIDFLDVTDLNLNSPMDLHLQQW", "details": "immobilised CCG-1423 (photo-crosslinked to Sepharose); pH 7.5, 4°C, 2 h"}}}
{"compound": "CC(ONC(=O)c1cc(C(F)(F)F)cc(C(F)(F)F)c1)C(=O)Nc1ccc(Cl)cc1", "note": "(stereo not drawn) [CCG-1423]", "values": [{"measurement": "pull-down with CCG-1423 Sepharose, immunoblot", "setting": "[1]", "result": "MRTF-B, Mycd, and Phactr1 bound to CCG-1423 Sepharose"}, {"measurement": "% of wild-type binding", "setting": "[2]", "result": "11.2±8.5", "unit": "%"}, {"measurement": "pull-down with CCG-1423 Sepharose, immunoblot", "setting": "[3]", "result": "MRTF-B NBmut) to CCG-1423 Sepharose severely reduced"}, {"measurement": "pull-down with CCG-1423 Sepharose, immunoblot", "setting": "[4]", "result": "MRTF-B, Mycd, and Phactr1 bound to CCG-1423 Sepharose"}, {"measurement": "% of binding left with 10 μM free CCG-1423", "setting": "[5]", "result": "20.6±6.3", "unit": "%"}, {"measurement": "pull-down with CCG-1423 Sepharose, immunoblot", "setting": "[6]", "result": "MRTF-B, Mycd, and Phactr1 bound to CCG-1423 Sepharose"}]}
